Reference: patent US20060019987A1, “Methods and compositions for inhibiting, destroying, and/or inactivating viruses” (priority 2004, published 2006)

What was measured:
hAd4 (RI-67 strain) = experiment: Virucidal efficacy: cytopathic effect of pretreated hAd4 in A549 cell monolayers; assay type: cell-based; settings: hAd4 pretreated 1 h at 35° C.; 10^7 PFU (and 1:10 dilution); A549 lung epithelial cells; 2 days post infection; vs PBS-treated virus (marked CPE)
Protocol: (§1) The experiments included human (hAd) serotypes of species B (hAd3), C (hAd5), and E (hAd4) and the long strain of RSV, representative of A. Two independent experiments were carried out for each virus.
Phosphate buffered saline (PBS) pretreatment of virus suspensions was used as a control.
After the 1-h incubation, 100 μl of the treated virus containing a total of 10^7 to 10^6 plaque forming units (PFU) of virus or their corresponding 1:10 or 1:100 dilutions were used to infect monolayers of A549 lung epithelial cells in quadruplicate 24-well plates. […] Viral cytopathic effect was examined at 2 days post infection. One hundred μl of a dilution 1:10 of the original treated samples containing 10^6 PFU were used to infect additional wells. (C: PBS-treated 1:10; E: SinoFresh® product-treated 1:10; G: CPC-treated 1:10).

RSV (Long strain) = experiment: Virucidal efficacy: syncytia formation by pretreated RSV in Hep-2 cell monolayers; assay type: cell-based; settings: RSV pretreated 1 h at 35° C.; Hep-2 cells; two experiments (starting 10^7 PFU and 109 PFU); 0.05% CPC
Protocol: as §1
One hundred microliters (μl) of each virus suspension containing 5×10^6 PFU or 5×10^5 PFU were subsequently used to infect monolayers of Hep-2 cells in quadruplicate in 24-well plates. […] Viral cytopathic effect was examined at 2 days post infection. One hundred μl of a dilution 1:10 of the original treated samples containing […] were used to infect additional wells (Block C: PBS-treated 1:10; E: SinoFresh® product-treated 1:10; G: CPC-treated 1:10).
A second independent experiment was carried out with a starting concentration of 10^9 PFU.

## CCCCCCCCCCCCCCCC[n+]1ccccc1 [CPC, 1-hexa-decyl pyridinium chloride]
hAd4 (RI-67 strain)
  development of cytopathic effect (CPE): no obvious CPE
RSV (Long strain)
  syncytia formation in infected monolayers: prevented syncytia formation
